Source: patent US8728797B2, “Yeast membrane protein expression system and its application in drug screening” (priority 2001, dated 2014)
In brackets after ≈: the same amount, converted by molar mass.

Key:
S. cerevisiae AD1-8u^− = experiment: MIC microdilution test, parental strain; format: cell-based; conditions: Saccharomyces cerevisiae; AD1-8u^− parental strain; 30° C., 48 h, pH 7.0
Description: (§1) The MICs of antifungal agents for S. cerevisiae cells were determined by a microdilution test based on the macrodilution reference method of the National Committee for Clinical Laboratory Standards. Cells (10 μl cell suspension, 2×10^5 cells/ml) were inoculated into 90 μl CSM-URA, buffered with 10 mM 2-(N-morpholino)ethanesulfonic acid (MES) and 18 mM N-2-hydroxyethylpiperazine-N′-2-ethanesulfonic acid (HEPES), pH 7.0 and containing 0.67% (w/v) yeast nitrogen base (YNB) in microtitre plate wells. For the uracil-requiring strain AD1-8u^− the medium was supplemented with 0.02% (w/v) uridine. The wells contained, in […], doubling dilutions of antifungal agents (final concentrations: fluconazole, 40-0.078 μg/ml; itraconazole and ketoconazole, 8-0.016 μg/ml). The microtitre plates were incubated at 30° C. for 48 h with shaking and then the growth of cells in individual wells (OD590) was measured with a microplate reader (EL 340, Bio-Tek, Winooski, Vt.). The MIC80 was the lowest concentration of drug that inhibited growth yield by at least 80% compared to a no-drug control.

S. cerevisiae AD1-8/CDR2 = experiment: MIC microdilution test, strain expressing Cdr2p; format: cell-based; conditions: Saccharomyces cerevisiae, AD18/CDR2, 30° C.
Description: as §1

[1] = system: S. cerevisiae AD1002 expressing C. albicans Cdr1p; experiment: MIC microdilution test, strain expressing Cdr1p; format: cell-based; conditions: for MIC80: AD1002 expressing Cdr1p, 30° C., 48 h, pH 7.0; for fold increase in MIC: AD1002 relative to parental AD1-8u^−
Description: as §1

[2] = system: AD124567 (Pdr5p-overexpressing); experiment: Disk drug susceptibility assay of chemosensitisation to fluconazole; format: cell-based, S. cerevisiae; conditions: 120 μg/ml fluconazole, 47 nanomole peptide on disk
Description: (A) Checkerboard drug susceptibility assay of AD124567 in the presence of the indicated concentrations of fluconazole and KN20. (B) Disk drug susceptibility assay of AD124567. This assay was conducted, as described in Materials and methods for example 4, in the absence or presence of fluconazole (120 μg/ml), and in the presence of (1) KN0 (47 nanomole), (2) KN20 (47 nanomole) or (0) control amounts of DMSO applied to disks
(§2) Drug susceptibility was measured using disk assays on CSM-URA plates (containing 1.5% w/v agar). Plates were seeded with yeast cells suspended in top agar (5 ml, 10^5 cells/ml). For the uracil-dependent parental strain, agar was supplemented with 0.02% uridine. Five microliters of drug solution or solvent control were spotted onto sterile Whatman paper disks on the top agar. […]

Pdr5p ATPase = molecular target: T1, Pdr5p ATPase (Saccharomyces cerevisiae, UniProt P33302); experiment: Oligomycin sensitive ATPase activity of AD124567 plasma membranes; format: biochemical, S. cerevisiae; conditions: in vitro
T1 construct: plasma membranes from the AD124567 yeast strain overexpressing Pdr5p; endogenous in cells; host or cells: S. cerevisiae AD124567 (pdr1-3, PDR5 intact), plasma membrane fraction
Description: (A) Inhibition profiles of oligomycin-sensitive Pdr5p ATPase activity by the purified peptides D-NH2-asparagine-tryptophan-tryptophan-lysine-valine-arginine-arginine-arginine-CONH2 (KN0) and its singly substituted Mtr-derivative KN20. (B) Inhibition profile with KN20 on the oligomycin-sensitive Cdr1p ATPase activity of plasma membranes from AD1002 minus the oligomycin-sensitive ATPase activity of plasma membranes from the isogenic AD1-8u^− strain.
Yeast were grown in YEPD, pH 5.5 at 30° C. until they reached late-exponential phase of growth (OD600 nm=7), washed twice in ice-cold distilled water, and incubated on ice for 30 min to minimize glucose-stimulated Pma1p activity. Cells were resuspended in homogenising medium (50 mM Tris pH 7.5, 2 mM EDTA and 1 mM phenylmethylsulfonyl fluoride) and disrupted using a Braun Homogeniser. Cell debris and unbroken cells were removed by centrifuging at 2,000×g at 4° C. for 10 min. A crude membrane fraction was isolated from the cell-free supernatant by centrifuging at 30,000×g at 4° C. for 45 min. Plasma membranes were prepared by centrifugation of the supernatant obtained after selective precipitation of mitochondria at pH 5.2 as described previously (Goffeau, A. and Dufour, J. P., 1988). […] Protein was determined using a micro-Bradford (Bio-Rad Laboratories, Hercules, Calif. [Bradford, M. M., 1976]) assay with gamma-globulin as standard. Nucleotide triphosphatase activity was measured by incubating the plasma membrane fractions (10 μg) at 30° C. in a final volume of 120 μl containing 6 mM NTP, 7 mM MgSO4 in 59 mM MES-Tris buffer pH 6.0-8.0. […] Other ATPase inhibitors (20 μM oligomycin, 20 μM aurovertin B or 100 μM vanadate were added to the reaction where indicated. After 30 min the reaction was stopped by adding 130 μl of a solution containing 1% (w/v) SDS, 0.6 M H2SO4, 1.2% (w/v) ammonium molybdate and 1.6% (w/v) ascorbic acid. Inorganic phosphate released from NTPs was measured at 750 nm after 10 min incubation at room temperature.

AD1002 = experiment: Disk drug susceptibility assay of chemosensitisation to fluconazole; format: cell-based, S. cerevisiae; conditions: 5 μg/ml fluconazole, 12 nanomole peptide on disk
Description: (A) Checkerboard drug susceptibility assay of AD1002. This assay was conducted as described in Materials and methods in the presence of the indicated concentrations of fluconazole and KN20. (B) Disk drug susceptibility assay of AD1002. This assay was conducted, as described in Materials and methods for Example 4, in the absence or presence of 5 μg/ml fluconazole, with (1) KN0 (12 nanomole), (2) KN20 (12 nanomole) or (0) control amounts of DMSO applied to the disks. (C) Checkerboard drug susceptibility assay of ATCC 10261. This assay was conducted, as described in Material and methods for Example 4, in the presence of the indicated concentrations of fluconazole and KN20. D indicates cell death as measured by a failure to recover any colony forming units when samples from microtitre plate wells were cultured on solid YPD medium.
as §2

T1 sequence (P33302 whole entry): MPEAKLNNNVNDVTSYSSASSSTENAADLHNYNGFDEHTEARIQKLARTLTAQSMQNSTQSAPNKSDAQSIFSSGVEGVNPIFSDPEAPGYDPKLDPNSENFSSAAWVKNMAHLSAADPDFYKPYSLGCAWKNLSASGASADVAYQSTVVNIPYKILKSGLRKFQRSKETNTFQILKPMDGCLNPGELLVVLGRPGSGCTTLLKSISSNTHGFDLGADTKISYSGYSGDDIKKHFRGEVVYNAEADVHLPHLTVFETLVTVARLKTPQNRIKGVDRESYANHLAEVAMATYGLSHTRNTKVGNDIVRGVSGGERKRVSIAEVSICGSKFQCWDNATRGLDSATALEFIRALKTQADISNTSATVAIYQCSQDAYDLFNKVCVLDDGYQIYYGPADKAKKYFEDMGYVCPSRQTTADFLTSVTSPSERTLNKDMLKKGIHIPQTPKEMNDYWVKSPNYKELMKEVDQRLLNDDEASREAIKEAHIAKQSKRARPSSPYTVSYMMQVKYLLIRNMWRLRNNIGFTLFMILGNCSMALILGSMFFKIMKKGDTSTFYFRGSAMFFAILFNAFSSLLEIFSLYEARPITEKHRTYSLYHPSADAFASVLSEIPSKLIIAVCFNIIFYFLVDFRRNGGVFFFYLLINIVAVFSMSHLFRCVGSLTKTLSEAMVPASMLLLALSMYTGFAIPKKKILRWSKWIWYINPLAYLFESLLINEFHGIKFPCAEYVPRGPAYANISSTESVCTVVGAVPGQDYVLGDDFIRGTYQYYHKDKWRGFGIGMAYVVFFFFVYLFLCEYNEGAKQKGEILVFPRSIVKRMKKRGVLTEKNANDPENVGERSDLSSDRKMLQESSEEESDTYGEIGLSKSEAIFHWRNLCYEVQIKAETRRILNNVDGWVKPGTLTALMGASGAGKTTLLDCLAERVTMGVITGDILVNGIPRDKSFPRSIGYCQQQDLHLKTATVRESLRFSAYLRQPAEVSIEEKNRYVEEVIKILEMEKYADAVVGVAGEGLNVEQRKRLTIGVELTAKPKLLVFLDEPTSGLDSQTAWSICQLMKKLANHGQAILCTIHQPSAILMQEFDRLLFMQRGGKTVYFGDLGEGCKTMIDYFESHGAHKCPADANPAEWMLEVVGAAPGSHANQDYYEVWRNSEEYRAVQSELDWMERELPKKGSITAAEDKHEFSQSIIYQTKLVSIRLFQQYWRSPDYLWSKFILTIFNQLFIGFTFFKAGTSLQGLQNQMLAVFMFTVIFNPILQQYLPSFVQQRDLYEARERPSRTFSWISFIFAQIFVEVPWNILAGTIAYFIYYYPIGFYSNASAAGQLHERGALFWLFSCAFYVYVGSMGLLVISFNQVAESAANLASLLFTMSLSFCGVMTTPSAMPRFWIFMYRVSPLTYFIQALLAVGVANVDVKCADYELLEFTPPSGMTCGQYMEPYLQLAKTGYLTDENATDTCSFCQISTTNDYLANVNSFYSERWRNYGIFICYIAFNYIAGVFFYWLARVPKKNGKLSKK

Row | Compound | MIC80 (S. cerevisiae AD1-8u^−) | MIC80 (S. cerevisiae AD1-8/CDR2) | MIC80 [1] | fold increase in MIC [1] | chemosensitisation to fluconazole in disk assay [2] | effect on oligomycin sensitive Pdr5p ATPase activity (Pdr5p ATPase) | chemosensitisation to fluconazole in disk assay (AD1002)
1 | CC(=O)N1CCN(c2ccc(OCC3COC(Cn4ccnc4)(c4ccc(Cl)cc4Cl)O3)cc2)CC1 (centres unmarked) [ketoconazole] | < 0.016 µg/mL | 2 µg/mL (≈ 3.76 µM) | 0.5 µg/mL (≈ 0.941 µM) | > 31 fold |  |  | 
2 | CCC(C)n1ncn(-c2ccc(N3CCN(c4ccc(OCC5COC(Cn6cncn6)(c6ccc(Cl)cc6Cl)O5)cc4)CC3)cc2)c1=O (centres unmarked) [itraconazole] | < 0.016 µg/mL | 1 µg/mL (≈ 1.42 µM) | 4 µg/mL (≈ 5.67 µM) | > 250 fold |  |  | 
3 | D-NH2-asparagine-tryptophan-tryptophan-lysine-valine-arginine-arginine-arginine-CONH2 [KN0] |  |  |  |  | ineffective at chemosensitisation | ineffective | ineffective at chemosensitisation
